Laboratory results: the NIST ThermoML archive (doi:10.1016/j.jct.2016.03.026)
“And” between values parts separate entries of the source, which are not always exact repeats. Identical values can stand only once.

Experiment: xn = mol fraction of the nth substance listed
Conditions: Fluid (supercritical or subcritical phases); for mass density: 293.15 K, Vibrating tube method, x1 = 0.97; for speed of sound: 298.13 K, Frequency=5 MHz, Pulse-echo method

O=C=O [carbon dioxide] + CO
Conditions	mass density [kg/m3]
14700 kPa	904.75
14725 kPa	904.95
14750 kPa	905.15
14775 kPa	905.36
14800 kPa	905.48
14825 kPa	905.68
14850 kPa	905.88
14875 kPa	906.06
14900 kPa	906.27
14925 kPa	906.44
14950 kPa	906.59
14975 kPa	906.77
15000 kPa	906.96
15025 kPa	907.15
15050 kPa	907.32
15075 kPa	907.46
15100 kPa	907.6
15125 kPa	907.83
15150 kPa	907.99
15175 kPa	908.18
15200 kPa	908.32
15225 kPa	908.49
15250 kPa	908.66
15275 kPa	908.85
15300 kPa	909.03
15325 kPa	909.22
15350 kPa	909.37
15375 kPa	909.52
15400 kPa	909.68
15425 kPa	909.89
15450 kPa	910.03
15475 kPa	910.14
15500 kPa	910.23
15525 kPa	910.31
15550 kPa	910.48
15575 kPa	910.7
15600 kPa	910.88
15625 kPa	911.01
15650 kPa	911.21
15675 kPa	911.37
15700 kPa	911.59
15725 kPa	911.74
15750 kPa	911.86
15775 kPa	912.03
15800 kPa	912.19
15825 kPa	912.36
15850 kPa	912.52
15875 kPa	912.75
15900 kPa	912.9
15925 kPa	913.04
15950 kPa	913.17
15975 kPa	913.37
16000 kPa	913.55
16025 kPa	913.66
16050 kPa	913.83
16075 kPa	913.99
16100 kPa	914.15
16125 kPa	914.31
16150 kPa	914.45
16175 kPa	914.56
16200 kPa	914.73
16225 kPa	914.89
16250 kPa	915.05
16275 kPa	915.22
16300 kPa	915.38
16325 kPa	915.54
16350 kPa	915.71
16375 kPa	915.87
16400 kPa	916.03
16425 kPa	916.2
16450 kPa	916.37
16475 kPa	916.52
16500 kPa	916.75
16525 kPa	916.93
16550 kPa	917.01
16575 kPa	917.25
16600 kPa	917.37
16625 kPa	917.58
16650 kPa	917.7
16675 kPa	917.9
16700 kPa	918.08
16725 kPa	918.24
16750 kPa	918.41
16775 kPa	918.57
16800 kPa	918.73
16825 kPa	918.9
16850 kPa	919.06
16875 kPa	919.22
16900 kPa	919.43
16925 kPa	919.55
16950 kPa	919.71
16975 kPa	919.95
17000 kPa	920.08
17025 kPa	920.29
17050 kPa	920.44
17075 kPa	920.59
17100 kPa	920.73
17125 kPa	920.92
17150 kPa	921.1
17175 kPa	921.27
17200 kPa	921.4
17225 kPa	921.53
17250 kPa	921.7
17275 kPa	921.85
17300 kPa	922.01
17325 kPa	922.18
17350 kPa	922.33
17375 kPa	922.5
17400 kPa	922.71
17425 kPa	922.85
17450 kPa	922.99
17475 kPa	923.17
17500 kPa	923.34
17525 kPa	923.48
17550 kPa	923.64
17575 kPa	923.77
17600 kPa	923.94
17625 kPa	924.11
17650 kPa	924.26
17675 kPa	924.4
17700 kPa	924.55
17725 kPa	924.7
17750 kPa	924.87
17775 kPa	925.03
17800 kPa	925.19
17825 kPa	925.35
17850 kPa	925.49
17875 kPa	925.61
17900 kPa	925.82
17925 kPa	925.93
17950 kPa	926.13
17975 kPa	926.25
18000 kPa	926.42
18025 kPa	926.56
18050 kPa	926.67
18075 kPa	926.86
18100 kPa	927.05
18125 kPa	927.16
18150 kPa	927.35
18175 kPa	927.46
18200 kPa	927.66
18225 kPa	927.75
18250 kPa	927.94
18275 kPa	928.06
18300 kPa	928.22
18325 kPa	928.38
18350 kPa	928.5
18375 kPa	928.68
18400 kPa	928.85
18425 kPa	928.95
18450 kPa	929.11
18475 kPa	929.27
18500 kPa	929.45
18525 kPa	929.53
18550 kPa	929.71
18575 kPa	929.88
18600 kPa	929.97
18625 kPa	930.13
18650 kPa	930.29
18675 kPa	930.46
18700 kPa	930.61
18725 kPa	930.69
18750 kPa	930.86
18775 kPa	931.01
18800 kPa	931.17
18825 kPa	931.25
18850 kPa	931.43
18875 kPa	931.59
18900 kPa	931.74
18925 kPa	931.9
18950 kPa	931.99
18975 kPa	932.14
19000 kPa	932.3
19025 kPa	932.45
19050 kPa	932.6
19075 kPa	932.74
19100 kPa	932.87
19125 kPa	933.01
19150 kPa	933.14
19175 kPa	933.29
19200 kPa	933.42
19225 kPa	933.56
19250 kPa	933.7
19275 kPa	933.83
19300 kPa	933.97
19325 kPa	934.1
19350 kPa	934.24
19375 kPa	934.38
19400 kPa	934.51
19425 kPa	934.64
19450 kPa	934.79
19475 kPa	934.91
19500 kPa	935.12
19525 kPa	935.24
19550 kPa	935.36
19575 kPa	935.49
19600 kPa	935.62
19625 kPa	935.75
19650 kPa	935.88
19675 kPa	936
19700 kPa	936.18
19725 kPa	936.26
19750 kPa	936.44
19775 kPa	936.57
19800 kPa	936.69
19825 kPa	936.81
19850 kPa	936.93
19875 kPa	937.05
19900 kPa	937.17
19925 kPa	937.36
19950 kPa	937.48
19975 kPa	937.6
20000 kPa	937.71

Conditions	speed of sound
10080 kPa, x1 = 0.7534	529.7 m/s
14970 kPa, x1 = 0.925	538.3 m/s
14980 kPa, x1 = 0.7534	600.9 m/s
14980 kPa, x1 = 0.925	537.1 m/s
14990 kPa, x1 = 0.925	536.5 m/s and 539.1 m/s
15060 kPa, x1 = 0.8502	554 m/s
19950 kPa, x1 = 0.925	600.2 m/s
19960 kPa, x1 = 0.925	602.2 m/s
20000 kPa, x1 = 0.8502	613.8 m/s
20000 kPa, x1 = 0.925	599.6 m/s and 601.7 m/s
20030 kPa, x1 = 0.7534	657.7 m/s
24940 kPa, x1 = 0.8502	663.5 m/s
24970 kPa, x1 = 0.925	651.7 m/s
24990 kPa, x1 = 0.925	651.3 m/s
25000 kPa, x1 = 0.925	652.9 m/s and 653 m/s
29950 kPa, x1 = 0.925	696.6 m/s
29980 kPa, x1 = 0.925	696.1 m/s
29990 kPa, x1 = 0.925	696.8 m/s
30000 kPa, x1 = 0.8502	707.4 m/s
30010 kPa, x1 = 0.925	695.5 m/s
30030 kPa, x1 = 0.7534	746.7 m/s
34980 kPa, x1 = 0.7534	783.5 m/s
34990 kPa, x1 = 0.925	735.2 m/s
35000 kPa, x1 = 0.925	736.1 m/s
35020 kPa, x1 = 0.925	734.8 m/s
35060 kPa, x1 = 0.8502	746.3 m/s
39980 kPa, x1 = 0.925	771.2 m/s
39990 kPa, x1 = 0.925	770.5 m/s and 770.1 m/s
40000 kPa, x1 = 0.925	771.3 m/s
40030 kPa, x1 = 0.8502	780.8 m/s
